Experimental data as given in PMC5686155, “Crystal structures of the mitochondrial deacylase Sirtuin 4 reveal isoform-specific acyl recognition and regulation features” (Nature Communications, 2017).
Each block holds one molecule with its values, some of them ahead of it.

How the values were obtained:
[1] = tested on: xSirt4; experiment: Thermal denaturation shift assay; format: binding, Xenopus tropicalis; details: 3 µM xSirt4, SYPRO orange, 20 to 73 °C; n = 2
Protocol: Thermal shift assays were performed in 96-well PCR plates using 3 µM xSirt4 (32–315) or 3 µM zSirt4 (29–310) and SYPRO orange (Thermo Fisher, Waltham, MA, USA) covered with 15 µL mineral oil. Heating and fluorescence measurements were performed in a FluoDia T70 with 1 K steps from 20 to 73 °C (excitation: 465 nm, emission: 580 nm). The data were analyzed in GraFit (Erithacus Software Ltd, Horley, UK) by nonlinear fitting using a two state model.

[2] = target: T1, hSirt4 (Homo sapiens, UniProt Q9Y6E7); experiment: Coupled continuous enzymatic assay monitoring NAM release from NAD+ (Sirt4 deacylation); format: biochemical; details: coupled enzymatic assay; for Sirt4 deacylation signal with CypA protein as substrate: increasing amounts of protein substrate, n = 2 (Fig. 1f); for effect on Sirt4 de-HMG-ylation activity: HMG-CPS1 peptide
T1 construct: hSirt4(25–314) in pQE30 coding for an N-terminal His6-tag; His6 (N); made in house; host or cells: Escherichia coli CodonPlus(DE3)
T1 sequence (Q9Y6E7 25-314): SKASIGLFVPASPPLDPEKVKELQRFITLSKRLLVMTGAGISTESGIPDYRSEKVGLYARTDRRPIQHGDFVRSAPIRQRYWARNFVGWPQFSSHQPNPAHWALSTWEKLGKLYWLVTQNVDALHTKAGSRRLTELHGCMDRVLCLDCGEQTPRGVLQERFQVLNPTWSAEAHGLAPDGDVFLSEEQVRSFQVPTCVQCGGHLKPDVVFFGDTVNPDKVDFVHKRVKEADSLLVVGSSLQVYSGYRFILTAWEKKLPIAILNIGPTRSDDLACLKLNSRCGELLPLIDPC
Protocol: The seven mammalian sirtuins vary in their sequence and acyl preferences[16],[19]. […] We therefore asked whether other acyl modifications would yield deacylation efficiencies expected for a physiologically dominant Sirt4 activity.
The coupled continuous assay was performed as reported. […] Reactions were monitored in microplates at room temperature for 1 h through absorption measurements at 340 nm in a LAMBDAScan plate reader (MWG Biotech, Ebersberg, Germany).

[3] = target: T1, hSirt4; experiment: HMG-FdL (Fluor-de-Lys-like) de-HMG-ylation assay; format: biochemical
Protocol: As a convenient and complementary, fluorescence-based alternative to the coupled enzymatic assay with HMG-peptides, we established substrate and assay corresponding to the popular “Fluor-de-Lys” (FdL) deacylation assays. […] We then employed the FdL-like Sirt4 assay for studying the effects of NAM and NADH, which are not compatible with the coupled assay. […] After 20 min, developer solution (2 mM NAM and 10 mg mL^−1 trypsin) in assay buffer was added 1:1 and samples were incubated for 45 min at room temperature. Fluorescence was measures using a FluoDia T70 with excitation wavelength 365 nm and emission wavelength 465 nm.

[4] = tested on: xSirt4; experiment: MS-based assay of metabolite effects on xSirt4 activity; format: biochemical, Xenopus tropicalis; details: n = 2 (Supplementary Fig. 3b)
Protocol: For MS and UV analyzes of deacylation reactions, samples were prepared as described for the coupled continuous assay, stopped by mixing 1:1 with 0.5% TFA after 0 and 60 min, diluted to 20 µM peptide using 0.1% FA, and analyzed by HPLC-separation using a Shimadzu Prominence UFLC (Shimadzu, Duisburg, Germany) coupled to ESI-MS and UV detection. Samples were washed on a Piccolo Proto 200 C4 5 μm 2.5 × 0.5 mm trap column (Higgins Analytical, Mountain View, California) and subsequently subjected to a Jupiter C4 5 μm 300 Å 150 × 1 mm analytical column (Phenomenex, Torrance, California) for reversed phase separation, with 99.9% H2O, 0.1% TFA as buffer A and 99.9% ACN, 0.1% TFA as buffer B. Peptides were eluted over a 20 min gradient from 1 to 55% buffer B, followed by 1 min from 55 to 90% buffer B with 70 µL min^−1 flow-rate. […] We detected in a mass range from 300 to 2500 m/z. […]
Supplementary Figure 3. […] (n=2; error bars: s.d.) e, Inner surfaces of the nucleotide binding sites of Sirt1-6, colored by electrostatic potential calculated with APBS2.1 in PyMOL using PDB IDs 4KXQ (Sirt1), 5D7O (Sirt2), 4BN4 (Sirt3), our xSirt4 structure, PDB IDs 3RIY (Sirt5) and 3K35 (Sirt6). […] The surfaces are colored according to electrostatic potential (red/-15 to blue/+15 kBT/e). f, xSirt4 surface colored by electrostatic potential calculated using APBS2.1 in PyMOL (red/-15 to blue/+15 kBT/e). […]

[5] = Non-enzymatic acylation of CPS1 peptide by acyl-CoA (titration); details: HMG-CoA titrations
[6] = target: T2, Cyclophilin A (CypA) (Homo sapiens, UniProt P62937); experiment: HMG-CoA modification of recombinant Cyclophilin A, intact protein MS; details: CypA 0.4 mg/ml, 8 mM HMG-CoA, 100 mM Tris-HCl pH 8.3, 37 °C, 4 h
T2 construct: expression of a full-length CypA construct in pQE70 (Qiagen) in E. coli M15 cells; made in house; host or cells: E. coli M15
T2 sequence (P62937 whole entry): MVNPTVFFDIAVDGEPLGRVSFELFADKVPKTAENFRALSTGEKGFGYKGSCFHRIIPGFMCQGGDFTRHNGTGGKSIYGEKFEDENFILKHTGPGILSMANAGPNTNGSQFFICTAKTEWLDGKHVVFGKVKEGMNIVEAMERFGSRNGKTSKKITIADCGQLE
Protocol: The recombinant CypA was prepared through expression of a full-length CypA construct in pQE70 (Qiagen) in E. coli M15 cells and purification by ion exchange chromatography on Fractogel EMD DEAE-650(M), Fractogel TSK AF-Blue, and Fractogel SO3–650(M) (Merck Millipore)[29]. CypA protein (0.4 mg ml^−1) was modified using 8 mM HMG-CoA in 100 mM Tris-HCl buffer pH 8.3 at 37 °C for 4 h. Formation of HMG-ylated protein was confirmed by peptide-MS analyzes after tryptic digest, and by intact HMG-CypA mass analyzes through HPLC-coupled ESI-MS[56]. For intact mass determination, 25 µM HMG-CypA in 10 mM Tris/HCl pH 7.5, 50 mM NaCl was HPLC-separated with the setting described below for peptide MS, using a 30 min gradient from 1 to 55% buffer B (90% ACN, 9.9% H2O, 0.1% FA; buffer A: 5% ACN, 94.9% H2O, 0.1% FA) followed by 1 min of 55–90% buffer B with 70 µL min^−1 flow-rate. MS-analyzes were done with the settings described for peptide assays (below), except that the IntactProtein script was activated, which reduces CEM to 100. Acquired data were extracted with PeakView and deconvoluted in MassLynx in the range of 950–1500 m/z using the MaxEnt I algorithm to a resolution of 1 Da. Peak intensity values were recorded and overlaid using MassLynx.

[7] = non-enzymatic; cited from earlier work
From the text: Acetyl transferases employ acetyl-CoA for modifying proteins. However, acetyl-CoA can also non-enzymatically modify proteins, and some other acyl-CoA, such as succinyl-CoA, do so even more efficiently, likely causing the emerging variety of protein acylations[14],[28],[29],[31]. We thus analyzed whether HMG-CoA efficiently acylates peptides and proteins.

[8] = 10 and 100 μM compound, n = 2 (Fig. 4a)

Molecule: Nc1ncnc2c1ncn2[C@@H]1O[C@H](COP(=O)(O)OP(=O)(O)OC[C@H]2OC(O)[C@H](O)[C@@H]2O)[C@@H](O)[C@H]1O (some centres unmarked) [ADPr, ADP-ribose]
Sirt4 stabilization in thermal denaturation shift experiments [1]: significant Sirt4 stabilization

Molecule: HMG-CypA: recombinant Cyclophilin A modified with HMG-CoA (1–7 HMG-modifications)
Sirt4 deacylation signal with CypA protein as substrate [2]: strong, substrate concentration dependent signal

effect on Sirt4 de-HMG-ylation activity ([2]; 100 μM compound, high error, effect already in control reaction (assay incompatibility)): weak signal decrease
effect on Sirt4 activity in HMG-FdL assay ([3]; 1 µM hSirt4, 500 µM HMG-FdL substrate, 500 µM NAD+, n = 2 (Fig. 4c)): no effect on Sirt4 activity
Molecule: O=C(Nc1ccccc1-c1cn2c(CN3CCNCC3)csc2n1)c1cnc2ccccc2n1 [SRT1720]

Molecule: O=C(O)CCCC[C@@H]1CCSS1 (racemic) [lipoic acid]
effect on Sirt4 de-HMG-ylation activity [4]: inhibits
effect on Sirt4 deacetylation activity [4]: inhibits

Molecule: CC(NC(=O)c1ccccc1/N=C/c1c(O)ccc2ccccc12)c1ccccc1 (centres unmarked) [sirtinol]
effect on Sirt4 de-HMG-ylation activity [2, 8]: no significant effect

acceptance as Sirt4 substrate ([3]; FdL procedure, fluorescence): readily accepted by Sirt4
Molecule: Cc1cc(=O)oc2cc(NC(=O)[C@H](CCCCNC(=O)CC(C)(O)CC(=O)O)NC(=O)OCc3ccccc3)ccc12 (stereo partly drawn) [HMG-FdL substrate, 5-(((S)−5-(((benzyloxy)carbonyl)amino)-6-((4-methyl-2-oxo-2H-chromen-7-yl)amino)-6-oxohexyl)amino)-3-hydroxy-3-methyl-5-oxopentanoic acid]

effect on Sirt4 de-HMG-ylation activity [2, 8]: no significant effect
Molecule: Oc1ccc(/C=C/c2cc(O)cc(O)c2)cc1 [resveratrol]

number of HMG-modifications on CypA [6]: 1–7
Molecule: CC(C)(CO[P@@](=O)(O)O[P@@](=O)(O)OC[C@H]1O[C@@H](n2cnc3c(N)ncnc32)[C@H](O)[C@@H]1OP(=O)(O)O)[C@@H](O)C(=O)NCCC(=O)NCCSC(=O)C[C@@](C)(O)CC(=O)O [HMG-CoA]
bimolecular rate constant of CPS1 peptide acylation [5]: (4.0 ± 0.8)×10^–10 μM^−1 s^−1

Molecule: CC(=O)SCCNC(=O)CCNC(=O)[C@H](O)C(C)(C)COP(=O)(O)OP(=O)(O)OC[C@H]1O[C@@H](n2cnc3c(N)ncnc32)[C@H](O)[C@@H]1OP(=O)(O)O [acetyl-CoA]
bimolecular rate constant k of CPS1 peptide acylation [7]: (1.5 ± 0.4)×10^–10 μM^−1 s^−1

Molecule: Unmodified CypA: recombinant Cyclophilin A, untreated
Sirt4 deacylation signal with CypA protein as substrate [2]: did not yield a significant deacylation signal

Molecule: NC(=O)c1cccnc1 [NAM, nicotinamide]
Sirt4 stabilization in thermal denaturation shift experiments [1]: no pronounced effects
